According to patent US8178522B2, “Thiazoles” (Hoffmann-La Roche Inc., priority 2009, dated 2012):
Read-outs that look alike come from different tables or passages of the source.

Molecular target: T1, GABA A α5 (α5β3γ2) (Homo sapiens, UniProt P18507+P31644)
T1 construct: expressed in transfected cells; host or cells: HEK293, transiently transfected; membrane preparation
Assay: [3H]flumazenil competition binding, human GABA A α5 receptor
Outline: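 Competition with [3H]flumazenil at membranes from HEK293 cells transiently expressing human α5β3γ2, in Krebs-tris buffer pH 7.5. Equilibrium 1 hour at 4° C, filtration with ice-cold 50 mM Tris wash, scintillation counting. Ki values are means of two determinations.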

[1] = human receptor α5β3γ2 transiently transfected in HEK293 cells, competition for [3H]flumazenil 0.5 nM, 1 hour at 4° C., means of two determinations, read-out: hKi GABA A α5

| SMILES | Ki [1] [nM] | Ki [nM] |
| --- | --- | --- |
| Cc1onc(-c2ccc(F)cn2)c1/C=C/c1ncc(C(=O)N2CCS(=O)(=O)CC2)s1 [Example 83, (1,1-Dioxothiomorpholin-4-yl)-(2-{(E)-2-[3-(5-fluoro-pyridin-2-yl)-5-methyl-isoxazol-4-yl]-vinyl}-thiazol-5-yl)-methanone] | 27.4 |  |
| Cc1onc(-c2ccc(F)cn2)c1/C=C/c1ncc(C(=O)NCC(F)(F)F)s1 [Example 84, 2-{(E)-2-[3-(5-Fluoro-pyridin-2-yl)-5-methyl-isoxazol-4-yl]-vinyl}-thiazole-5-carboxylic acid (2,2,2-trifluoro-ethyl)-amide] |  | 4.1 |
| Cc1onc(-c2ccc(F)cn2)c1/C=C/c1ncc(C(=O)NCCO)s1 [Example 85, 2-{(E)-2-[3-(5-Fluoro-pyridin-2-yl)-5-methyl-isoxazol-4-yl]-vinyl}-thiazole-5-carboxylic acid (2-hydroxy-ethyl)-amide] | 5.1 |  |
| Cc1onc(-c2ccc(F)cn2)c1/C=C/c1ncc(C(=O)N2CCSCC2)s1 [Example 89, (2-{(E)-2-[3-(5-Fluoro-pyridin-2-yl)-5-methyl-isoxazol-4-yl]-vinyl}-thiazol-5-yl)-thiomorpholin-4-yl-methanone] | 22.8 |  |
| Cc1nc(/C=C/c2conc2-c2ccc(F)cn2)sc1C(=O)NC1CCOCC1 [Example 90, 2-{(E)-2-[3-(5-Fluoro-pyridin-2-yl)-isoxazol-4-yl]-vinyl}-4-methyl-thiazole-5-carboxylic acid (tetrahydro-pyran-4-yl)-amide] | 24.8 |  |
| Cc1nc(/C=C/c2conc2-c2ccc(F)cn2)sc1C(=O)NC1CC1 [Example 91, 2-{(E)-2-[3-(5-Fluoro-pyridin-2-yl)-isoxazol-4-yl]vinyl}-4-methyl-thiazole-5-carboxylic acid cyclopropylamide] | 35.3 |  |
| CCCCc1noc(C)c1/C=C/c1nc(C)c(C(=O)NC(C)C)s1 [Example 93, 2-[(E)-2-(3-Butyl-5-methyl-isoxazol-4-yl)-vinyl]-4-methyl-thiazole-5-carboxylic acid isopropylamide] | 1.9 |  |
| CCCCc1noc(C)c1/C=C/c1nc(C)c(C(=O)NC2CCOCC2)s1 [Example 96, 2-[(E)-2-(3-Butyl-5-methyl-isoxazol-4-yl)-vinyl]-4-methyl-thiazole-5-carboxylic acid (tetrahydro-pyran-4-yl)-amide] | 1.5 |  |
| CCCCc1noc(C)c1/C=C/c1nc(C)c(C(=O)NC(CO)CO)s1 [Example 98, 2-[(E)-2-(3-Butyl-5-methyl-isoxazol-4-yl)-vinyl]-4-methyl-thiazole-5-carboxylic acid (2-hydroxy-1-hydroxymethyl-ethyl)-amide] | 1.9 |  |
| CCCCc1noc(C)c1/C=C/c1nc(C)c(C(=O)O)s1 [Example 99, 2-[(E)-2-(3-Butyl-5-methyl-isoxazol-4-yl)-vinyl]-4-methyl-thiazole-5-carboxylic acid] | 27.6 |  |
| CCCCc1noc(C)c1/C=C/c1nc(C)c(C(N)=O)s1 [Example 100, 2-[(E)-2-(3-Butyl-5-methyl-isoxazol-4-yl)-vinyl]-4-methyl-thiazole-5-carboxylic acid amide] | 2 |  |
| CCCCc1noc(C)c1/C=C/c1nc(C)c(C(=O)N[C@@H](CC)CO)s1 [Example 106, 2-[(E)-2-(3-Butyl-5-methyl-isoxazol-4-yl)-vinyl]-4-methyl-thiazole-5-carboxylic acid ((S)-1-hydroxymethyl-propyl)-amide] | 2.1 |  |
| CCCCc1noc(C)c1/C=C/c1nc(C)c(C(=O)N[C@H](C)C(F)(F)F)s1 [Example 107, 2-[(E)-2-(3-Butyl-5-methyl-isoxazol-4-yl)-vinyl]-4-methyl-thiazole-5-carboxylic acid ((R)-2,2,2-trifluoro-1-methyl-ethyl)-amide] | 2.6 |  |
| CCCCc1noc(C)c1/C=C/c1nc(C)c(C(=O)N2CC(F)(F)C2)s1 [Example 108, {2-[(E)-2-(3-Butyl-5-methyl-isoxazol-4-yl)-vinyl]-4-methyl-thiazol-5-yl}-(3,3-difluoro-azetidin-1-yl)-methanone] | 24.5 |  |
| CCCCc1noc(C)c1/C=C/c1nc(C)c(C(=O)N[C@H]2CCC[C@@H]2O)s1 [Example 111, 2-[(E)-2-(3-Butyl-5-methyl-isoxazol-4-yl)-vinyl]-4-methyl-thiazole-5-carboxylic acid ((1S,2S)-2-hydroxy-cyclopentyl)-amide] | 5.5 |  |
| CCCCc1noc(C)c1/C=C/c1nc(C)c(C(=O)NC2CCC2)s1 [Example 115, 2-[(E)-2-(3-Butyl-5-methyl-isoxazol-4-yl)-vinyl]-4-methyl-thiazole-5-carboxylic acid cyclobutylamide] | 4.7 |  |
| CCCCc1noc(C)c1/C=C/c1nc(C)c(C(=O)NC2CCS(=O)(=O)C2)s1 (centres unmarked) [Example 118, 2-[(E)-2-(3-Butyl-5-methyl-isoxazol-4-yl)-vinyl]-4-methyl-thiazole-5-carboxylic acid (1,1-dioxo-tetrahydrothiophen-3-yl)-amide] | 2.5 |  |
| CCCCc1noc(C)c1/C=C/c1nc(C)c(C(=O)NCC(F)(F)F)s1 [Example 119, 2-[(E)-2-(3-Butyl-5-methyl-isoxazol-4-yl)-vinyl]-4-methyl-thiazole-5-carboxylic acid (2,2,2-trifluoro-ethyl)-amide] | 2.4 |  |

Further compounds by falling Ki [1], results first:

| Ki [1] [nM] | SMILES | Ki [nM] |
| --- | --- | --- |
| 40.4 | Cc1nc(/C=C/c2conc2-c2ccc(F)cn2)sc1C(=O)NCC1CC1 [Example 92, 2-{(E)-2-[3-(5-Fluoro-pyridin-2-yl)-isoxazol-4-yl]-vinyl}-4-methyl-thiazole-5-carboxylic acid cyclopropylmethyl-amide] |  |
| 33.2 | CCCCc1noc(C)c1/C=C/c1nc(C)c(C(=O)N2CC(OC)C2)s1 [Example 109, {2-[(E)-2-(3-Butyl-5-methyl-isoxazol-4-yl)-vinyl]-4-methyl-thiazol-5-yl}-(3-methoxy-azetidin-1-yl)-methanone] |  |
| 31.2 | Cc1onc(-c2ccc(F)cn2)c1/C=C/c1ncc(C(=O)N2CCOCC2)s1 [Example 86, (2-{(E)-2-[3-(5-Fluoro-pyridin-2-yl)-5-methyl-isoxazol-4-yl]-vinyl}-thiazol-5-yl)-morpholin-4-yl-methanone] |  |
| 30.8 | CCCCc1noc(C)c1/C=C/c1nc(C)c(C(=O)N2CCC2)s1 [Example 110, Azetidin-1-yl-{2-[(E)-2-(3-butyl-5-methyl-isoxazol-4-yl)-vinyl]-4-methyl-thiazol-5-yl}-methanone] |  |
| 28.8 | CCCCc1noc(C)c1/C=C\c1nc(C)c(C(=O)NCCO)s1 [Example 101, 2-[(Z)-2-(3-Butyl-5-methyl-isoxazol-4-yl)-vinyl]-4-methyl-thiazole-5-carboxylic acid (2-hydroxy-ethyl)-amide] |  |
| 21 | CCCCc1noc(C)c1/C=C/c1nc(C)c(C(=O)NC(C)(C)CO)s1 [Example 117, 2-[(E)-2-(3-Butyl-5-methyl-isoxazol-4-yl)-vinyl]-4-methyl-thiazole-5-carboxylic acid (2-hydroxy-1,1-dimethyl-ethyl)-amide] |  |
| 7.9 | CCCCc1noc(C)c1/C=C/c1nc(C)c(C(=O)N[C@H](CC)CO)s1 [Example 105, 2-[(E)-2-(3-Butyl-5-methyl-isoxazol-4-yl)-vinyl]-4-methyl-thiazole-5-carboxylic acid ((R)-1-hydroxymethyl-propyl)-amide] |  |
| 6.2 | CNC(=O)c1cnc(/C=C/c2c(-c3ccc(F)cn3)noc2C)s1 [Example 88, 2-{(E)-2-[3-(5-Fluoro-pyridin-2-yl)-5-methyl-isoxazol-4-yl]-vinyl}-thiazole-5-carboxylic acid methylamide] |  |
| 5.1 | CCCCc1noc(C)c1/C=C/c1nc(C)c(C(=O)NC2CC2)s1 [Example 113, 2-[(E)-2-(3-Butyl-5-methyl-isoxazol-4-yl)-vinyl]-4-methyl-thiazole-5-carboxylic acid cyclopropylamide] |  |
| 4.7 | Cc1onc(-c2ccc(F)cn2)c1/C=C/c1ncc(C(=O)NCC2CC2)s1 [Example 82, 2-{(E)-2-[3-(5-Fluoro-pyridin-2-yl)-5-methyl-isoxazol-4-yl]-vinyl}-thiazole-5-carboxylic acid cyclopropylmethyl-amide] |  |
| 4.4 | CCCCc1noc(C)c1/C=C/c1nc(C)c(C(=O)NN(C)C)s1 [Example 102, 2-[(E)-2-(3-Butyl-5-methyl-isoxazol-4-yl)-vinyl]-4-methyl-thiazole-5-carboxylic acid N′,N′-dimethyl-hydrazide] |  |
| 4.4 | CCCCc1noc(C)c1/C=C/c1nc(C)c(C(=O)NCC2CC2)s1 [Example 116, 2-[(E)-2-(3-Butyl-5-methyl-isoxazol-4-yl)-vinyl]-4-methyl-thiazole-5-carboxylic acid cyclopropylmethyl-amide] |  |
| 4 | CCNC(=O)c1cnc(/C=C/c2c(-c3ccc(F)cn3)noc2C)s1 [Example 87, 2-{(E)-2-[3-(5-Fluoro-pyridin-2-yl)-5-methyl-isoxazol-4-yl]-vinyl}-thiazole-5-carboxylic acid ethylamide] |  |
| 2.2 | CCCCc1noc(C)c1/C=C/c1nc(C)c(C(=O)NCCO)s1 [Example 95, 2-[(E)-2-(3-Butyl-5-methyl-isoxazol-4-yl)-vinyl]-4-methyl-thiazole-5-carboxylic acid (2-hydroxy-ethyl)-amide] |  |
| 1.8 | CCCCc1noc(C)c1/C=C/c1nc(C)c(C(=O)NN2CCOCC2)s1 [Example 103, 2-[(E)-2-(3-Butyl-5-methyl-isoxazol-4-yl)-vinyl]-4-methyl-thiazole-5-carboxylic acid morpholin-4-ylamide] |  |
| 1.3 | CCCCc1noc(C)c1/C=C/c1nc(C)c(C(=O)Nc2cnn(C)c2)s1 [Example 112, 2-[(E)-2-(3-Butyl-5-methyl-isoxazol-4-yl)-vinyl]-4-methyl-thiazole-5-carboxylic acid (1-methyl-1-pyrazol-4-yl)-amide] |  |
| 1.2 | CCCCc1noc(C)c1/C=C/c1nc(C)c(C(=O)NC2CCOC2)s1 (centres unmarked) [Example 94, 2-[(E)-2-(3-Butyl-5-methyl-isoxazol-4-yl)-vinyl]-4-methyl-thiazole-5-carboxylic acid (tetrahydro-furan-3-yl)-amide] |  |
